Data as given in US7902394B2, “Calcilytic compounds” (GlaxoSmithKline LLC, priority 2006, dated 2011).

Key:
[1] = molecular target: T1, Human Parathyroid Calcium Receptor (“HuPCaR”) (Homo sapiens, UniProt P41180); experiment: Calcium Receptor Binding Assay (3H ligand displacement, HEK 293 4.0-7 membranes); settings: 2 nM 3H compound, 4° C. 30 min, 10 uM was the limit of the assay
T1 construct: expressed in transfected cells; host or cells: HEK 293 4.0-7 (plasma membrane preparation)
T1 sequence (P41180 20-1078): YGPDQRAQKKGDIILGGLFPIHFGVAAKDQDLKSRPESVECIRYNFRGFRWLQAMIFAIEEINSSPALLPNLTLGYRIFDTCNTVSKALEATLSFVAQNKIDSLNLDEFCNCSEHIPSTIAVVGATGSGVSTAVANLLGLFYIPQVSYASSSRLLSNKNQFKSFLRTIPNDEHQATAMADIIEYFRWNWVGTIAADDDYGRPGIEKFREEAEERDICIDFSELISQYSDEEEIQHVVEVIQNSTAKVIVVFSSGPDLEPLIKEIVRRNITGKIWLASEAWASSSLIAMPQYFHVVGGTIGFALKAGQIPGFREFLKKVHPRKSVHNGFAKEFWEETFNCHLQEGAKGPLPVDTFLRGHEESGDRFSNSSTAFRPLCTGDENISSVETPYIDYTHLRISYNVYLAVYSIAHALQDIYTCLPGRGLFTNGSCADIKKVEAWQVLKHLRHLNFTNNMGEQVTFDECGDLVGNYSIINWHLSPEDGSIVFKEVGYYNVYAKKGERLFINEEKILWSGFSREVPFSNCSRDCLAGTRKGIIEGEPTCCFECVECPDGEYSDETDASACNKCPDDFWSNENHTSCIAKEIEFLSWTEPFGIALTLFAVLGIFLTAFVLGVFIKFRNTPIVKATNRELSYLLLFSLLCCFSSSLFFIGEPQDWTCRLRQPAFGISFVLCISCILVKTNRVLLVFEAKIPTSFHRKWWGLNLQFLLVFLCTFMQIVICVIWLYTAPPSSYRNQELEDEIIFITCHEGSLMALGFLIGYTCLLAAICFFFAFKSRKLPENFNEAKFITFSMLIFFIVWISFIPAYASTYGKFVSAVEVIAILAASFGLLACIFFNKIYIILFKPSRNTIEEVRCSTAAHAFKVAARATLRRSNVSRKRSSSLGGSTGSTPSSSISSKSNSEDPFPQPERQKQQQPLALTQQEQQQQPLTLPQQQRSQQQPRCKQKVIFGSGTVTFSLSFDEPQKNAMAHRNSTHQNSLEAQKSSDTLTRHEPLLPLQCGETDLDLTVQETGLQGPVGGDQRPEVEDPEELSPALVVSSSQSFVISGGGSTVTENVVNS
Description: HEK 293 4.0-7 cells stably transfected with the Human Parathyroid Calcium Receptor (“HuPCaR”) were scaled up in T180 tissue culture flasks. Plasma membrane was obtained by polytron homogenization or glass douncing in buffer (50 mM Tris-HCl pH 7.4, 1 mM EDTA, 3 mM MgCl2) in the presence of a protease inhibitor cocktail containing 1 uM Leupeptin, 0.04 uM Pepstatin, and 1 mM PMSF. Aliquoted membrane was snap frozen and stored at −80° C. ^3H labeled compound was radiolabeled to a radiospecific activity of 44 Ci/mmole and was aliquoted and stored in liquid nitrogen for radiochemical stability.
A typical reaction mixture contained 2 nM ^3H compound ((R,R)—N-4′-Methoxy-t-3-3′-methyl-1′-ethylphenyl-1-(1-naphthyl)ethylamine), or ^3H compound (R)—N-[2-Hydroxy-3-(3-chloro-2-cyanophenoxy)propyl]-1,1-dimethyl-2-(4-methoxyphenyl)ethylamine with 4-10 ug membrane in homogenization buffer containing 0.1% gelatin and 10% EtOH in a reaction volume of 0.5 mL. Incubation was performed in 12×75 polyethylene tubes in an ice water bath. To each tube 25 uL of test sample in 100% EtOH was added, followed by 400 uL of cold incubation buffer, and 25 uL of 40 nM ^3H-compound in 100% EtOH for a final concentration of 2 nM. The binding reaction was initiated by the addition of 50 uL of 80-200 ug/mL HEK 293 4.0-7 membrane diluted in incubation buffer, and allowed to incubate at 4° C. for 30 min. Wash buffer was 50 mM Tris-HCl containing 0.1% PEI. Nonspecific binding was determined by the addition of 100-fold excess of unlabeled homologous ligand, and was generally 20% of total binding. The binding reaction was terminated by rapid filtration onto 1% PEI pretreated GF/C filters using a Brandel Harvestor. Filters were placed in scintillation fluid and radioactivity assessed by liquid scintillation counting.

[2] = molecular target: T2, human calcium receptor (Homo sapiens, UniProt P41180); experiment: Calcium Receptor Inhibitor Assay (block of intracellular Ca2+ increase elicited by extracellular Ca2+, fluo-3); type: cell-based; settings: HEK 293 4.0-7 cells stably expressing the human calcium receptor; 10 uM was the limit of the assay; read-out: IC50 for blocking increases of intracellular Ca2+ elicited by extracellular Ca2+
T2 construct: expressed in transfected cells; host or cells: HEK 293 4.0-7
T2 sequence (P41180 20-1078): T1 sequence (P41180 20-1078)
Description: Calcilytic activity was measured by determining the IC50 of the test compound for blocking increases of intracellular Ca^2+ elicited by extracellular Ca^2+ in HEK 293 4.0-7 cells stably expressing the human calcium receptor. HEK 293 4.0-7 cells were constructed as described by Rogers et al., J. Bone Miner. Res. 10 Suppl. 1:S483, 1995 (hereby incorporated by reference to the extent required to conduct the present assay). Intracellular Ca^2+ increases were elicited by increasing extracellular Ca^2+ from 1 to 1.75 mM. Intracellular Ca^2+ was measured using fluo-3, a fluorescent calcium indicator.
Cells were maintained in T-150 flasks in selection media (DMEM supplemented with 10% fetal bovine serum and 200 ug/mL hygromycin B), under 5% CO2:95% air at 37° C. and were grown up to 90% confluency. The medium was decanted and the cell monolayer was washed twice with phosphate-buffered saline (PBS) kept at 37° C. After the second wash, 6 mL of 0.02% EDTA in PBS was added and incubated for 4 minutes at 37° C. Following the incubation, cells were dispersed by gentle agitation. Cells from 2 or 3 flasks were pooled and pelleted (100×g). The cellular pellet was resuspended in 10-15 mL of SPF-PCB+ and pelleted again by centrifugation. This washing was done twice.
Sulfate- and phosphate-free parathyroid cell buffer (SPF-PCB) contained 20 mM Na-Hepes, pH 7.4, 126 mM NaCl, 5 mM KCl, and 1 mM MgCl2. SPF-PCB was made up and stored at 4° C. On the day of use, SPF-PCB was supplemented with 1 mg/mL of D-glucose and 1 mM CaCl2 and then split into two fractions. To one fraction, bovine serum albumin (BSA; fraction V, ICN) was added at 5 mg/mL (SPF-PCB+). This buffer was used for washing, loading and maintaining the cells. The BSA-free fraction was used for diluting the cells in the cuvette for measurements of fluorescence.
The pellet was resuspended in 10 mL of SPF-PCB+ containing 2.2 uM fluo-3 (Molecular Probes) and incubated at room temperature for 35 minutes. Following the incubation period, the cells were pelleted by centrifugation. The resulting pellet was washed with SPF-PCB+. After this washing, cells were resuspended in SPF-PCB+ at a density of 1-2×10^6 cells/mL.
For recording fluorescent signals, 300 uL of cell suspension were diluted in 1.2 mL of SPF buffer containing 1 mM CaCl2 and 1 mg/mL of D-glucose. Measurements of fluorescence were performed at 37° C. with constant stirring using a spectrofluorimeter. Excitation and emission wavelengths were measured at 485 and 535 nm, respectively. To calibrate fluorescence signals, digitonin (5 mg/mL in ethanol) was added to obtain Fmax, and the apparent Fmin was determined by adding Tris-EGTA (2.5 M Tris-Base, 0.3 M EGTA). The concentration of intracellular calcium was calculated using the following equation: Intracellular calcium=[…]; where Kd=400 nM.
To determine the potential calcilytic activity of test compounds, cells were incubated with test compound (or vehicle as a control) for 90 seconds before increasing the concentration of extracellular Ca^2+ from 1 to 2 mM. Calcilytic compounds were detected by their ability to block, in a concentration-dependent manner, increases in the concentration of intracellular Ca^2+ elicited by extracellular Ca^2+.

Structure (SMILES)	IC50 [1] [µM]	IC50 [2] [µM]
CC(C)(Cc1ccccc1)NC[C@@H](O)c1cc(CCC(=O)O)cc(F)c1F [Example 13, 3-(3-{(1S)-2-[(1,1-dimethyl-2-phenylethyl)amino]-1-hydroxyethyl}-4,5-difluorophenyl)propanoic acid]	> 10	
CC(C)(Cc1cccs1)NC[C@@H](O)c1cc(CCC(=O)O)cc(F)c1F [Example 21, 3-[3-((1S)-2-{[1,1-dimethyl-2-(2-thienyl)ethyl]amino}-1-hydroxyethyl)-4,5-difluorophenyl]propanoic acid]	> 10	> 10
CC(C)(CCc1ccccc1)NC[C@@H](O)c1cc(CCC(=O)O)cc(F)c1F [Example 22, 3-(3-{(1S)-2-[(1,1-dimethyl-3-phenylpropyl)amino]-1-hydroxyethyl}-4,5-difluorophenyl)propanoic acid]		> 10
CC(C)(Cc1ccc(Br)cc1)NC[C@@H](O)c1cc(CCC(=O)O)cc(F)c1F [Example 23, 3-[3-((1S)-2-{[2-(4-bromophenyl)-1,1-dimethylethyl]amino}-1-hydroxyethyl)-4,5-difluorophenyl]propanoic acid]		> 10
CC(C)(Cc1ccc(Cl)s1)NC[C@@H](O)c1cc(CCC(=O)O)cc(F)c1F [Example 24, 3-[3-((1S)-2-{[2-(5-chloro-2-thienyl)-1,1-dimethylethyl]amino}-1-hydroxyethyl)-4,5-difluorophenyl]propanoic acid]		> 10

The remaining lines, values ahead:

IC50 [1] [µM]	IC50 [2] [µM]	Structure (SMILES)
	> 10	Cc1ccc(CC(C)(C)NC[C@@H](O)c2cc(CCC(=O)O)cc(F)c2F)s1 [Example 16, 3-[3-((1S)-2-{[1,1-dimethyl-2-(5-methyl-2-thienyl)ethyl]amino}-1-hydroxyethyl)-4,5-difluorophenyl]propanoic acid]
> 10	> 10	COc1ccc(CCC(C)(C)NC[C@@H](O)c2cc(CCC(=O)O)cc(F)c2F)cc1 [Example 17, 3-{3-[(1S)-2-([1,1-dimethyl-3-[4-(methyloxy)phenyl]propyl}amino)-1-hydroxyethyl]-4,5-difluorophenyl]propanoic acid]
	> 10	Cc1ccc(CC(C)(C)NC[C@@H](O)c2cc(CCC(=O)O)cc(F)c2F)cc1F [Example 18, 3-[3,4-difluoro-5-((1S)-2-{[2-(3-fluoro-4-methylphenyl)-1,1-dimethylethyl]amino}-1-hydroxyethyl)phenyl]propanoic acid]
	> 10	CSc1ccc(CC(C)(C)NC[C@@H](O)c2cc(CCC(=O)O)cc(F)c2F)cc1 [Example 19, 3-{3-[(1S)-2-({1,1-dimethyl-2-[4-(methylthio)phenyl]ethyl}amino)-1-hydroxyethyl]-4,5-difluorophenyl}propanoic acid]
	> 10	CC(C)(Cc1ccc(C(C)(C)C)cc1)NC[C@@H](O)c1cc(CCC(=O)O)cc(F)c1F [Example 20, 3-{3-[(1S)-2-({2-[4-(1,1-dimethylethyl)phenyl]-1,1-dimethylethyl}amino)-1-hydroxyethyl]-4,5-difluorophenyl}propanoic acid]
